Legend:
[1] = system: BMDMs from CCR2-knockout mice; assay: Actin polymerization in BMDMs from CCR2-knockout mice; type: cell-based, mouse
Protocol: BMDMs were seeded and cultured on #1 glass coverslips in the presence or absence of 10 μM CCTV or VTCC for 6 h. Next, cells were washed with PBS and recombinant mouse CCL2 was added to a final concentration of 500 nM. Then, cells were incubated for varying times (indicated in Figure 2G), after which they were immediately placed on ice and washed 3 times with cold PBS. Actin polymerization was then visualized following staining with phalloidin Alexa Fluor 633, according to the manufacturer's instructions.

[2] = system: recombinant CCR2 protein; assay: Competition with CCL2 binding to immobilized CCR2; settings: free peptide 1 mM in dimethylformamide, 1 h room temperature, recombinant human CCL2; OD 450 nm; three independent experiments
Protocol: A sandwich-type plate-based immunoassay was developed in-house to study CCR2 receptor binding. Black opaque plates (for fluorescence studies) or clear high protein binding plates (for absorbance studies) were coated with recombinant CCR2 protein at 2 µg/mL in PBS overnight at 4 °C. Plates were washed 5 times with PBS and treated as follows: for nanoparticles binding, varying concentrations of fluorescent nanoparticles or vehicle control (see above) in PBS were added to the opaque plates and incubated for 4 h at room temperature. For peptide competition/binding studies, recombinant human CCL2 was added in clear plates at varying concentrations in PBS simultaneously with a large excess of peptides (1 mM final concentration, dissolved in dimethylformamide) and incubated for 1 h at room temperature. All plates were washed 5 times with PBS and fluorescence in opaque plates was read at 550 nm excitation and 620 nm emissions. […] Clear plates were washed and incubated with 0.1 µg/mL streptavidin-HRP. Finally, clear plates were washed and incubated with SigmaFast OPD reagent in the presence of hydrogen peroxide-urea, as per the manufacturer's instructions. After 30 min incubation period at 37 °C, the plates were read at 450 nm on a multiwell plate reader as described above. Fluorescence emission values and OD at 450 nm were plotted against concentration using a 4-parametric fit.

[3] = system: RAW cells; assay: Flow cytometry competition with excess free peptide; type: cell-based, mouse; settings: excess (1 mM) free peptide
Description: Figure 1 Screening identifies CCTV as an anti-inflammatory nanoparticle with high affinity for CC chemokine receptor 2. A) A screening of a small library of nanoparticles in lipopolysaccharide (LPS)-stimulated macrophage reporter cells (RAW-Blue) identified CCTV, which downregulates nuclear factor-kappa B (NF-κB) activity. Each point on the plot represents a relative activity of NF-κB (X-coordinate) and corresponding nanoparticle content per mg of cell protein (Y-coordinate) calculated from nanoparticle fluorescence. […] Dexamethasone (Dex) is an NF-κB inhibitor and was used as a positive control. Vehicle-treated and unstained (US) cells served as a negative control. B) CCTV binding to the cell surface was validated in RAW cells using fluorescence microscopy. The cells were stained at 4 °C or room temperature for 30 min with CCTV or vehicle nanoparticles (sudo-colored green). […] E) The Basic Local Alignment Search Tool (BLAST) analysis determined that CCTV peptide sequence repeats in mouse and human CC chemokine receptor family. […]
For a targeted nanotherapy to be effective, the nanoparticles must have affinity to a specific cell type, usually determined by cell surface binding. […] Thus, we used the mouse macrophage reporter cell line RAW-Blue that allowed for monitoring activity of Nuclear Factor-kappa B (NF-kB) and also enabled In vitro quantitation of nanoparticle binding to the cell surface. […]

Substance	actin polymerization in CCR2-knockout BMDMs [1]	competition with CCL2 binding to CCR2 [2]	reduction of CCTV nanoparticle staining by free peptide [3]
CCL2: recombinant mouse CCL2/MCP-1 protein, natural CCR2 ligand	neither nanoparticles nor CCL2 are able to induce polymerization		
CCTV [free CCTV peptide, free (unconjugated) CCTV tetrapeptide]		insignificantly competed with receptor binding of natural CCR2 ligand	did not show appreciable reduction in CCTV staining in RAW cells
